Data as given in ChEMBL document CHEMBL1201862, “PubChem BioAssay data set” (2004).
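Dose response: 5 concentrations. Exposure: 48 h. Format: 96-well plates. Endpoint: linear interpolation; highest concentration if not reached. GI50 = concentration required for 50% inhibition of growth.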 Calls of active or inactive are those of the source. Rule as the data show it: active = GI50 up to about 1.1 µM and inactive = higher.

How the values were obtained:
Assay in all cases: DTP human tumour cell line panel, 48 h
[1] = test system: A549
[2] = test system: BT-549
[3] = test system: EKVX
[4] = test system: HCT-116
[5] = test system: HL-60
[6] = test system: HOP-18
[7] = test system: HOP-62
[8] = test system: KM-20L2
[9] = test system: MCF7
[10] = test system: MDA-MB-231
[11] = test system: NCI-H23
[12] = test system: RPMI-8226
[13] = test system: SF-268
[14] = test system: SK-OV-3
[15] = test system: SN12C
[16] = test system: SNB-78
[17] = test system: SW-620
[18] = test system: TK-10
[19] = test system: U-251
[20] = test system: SR

SMILES | GI50 [1] | GI50 [2] | GI50 [3] | GI50 [4] | GI50 [5] | GI50 [6] | GI50 [7] | GI50 [8] | GI50 [9] | GI50 [10] | GI50 [11] | GI50 [12] | GI50 [13] | GI50 [14] | GI50 [15] | GI50 [16] | GI50 [17] | GI50 [18] | GI50 [19] | GI50 [20]
COc1ccc2nc(-c3ccc(O)cc3)cc(O)c2c1 | 3.7 µM (inactive) | 25.9 µM (inactive) | 7.06 µM (inactive) | 0.977 µM (active) | 0.649 µM (active) | 4.78 µM (inactive) | 1.42 µM (inactive) | 1.7 µM (inactive) | 3.52 µM (inactive) | 22.6 µM (inactive) | 1.16 µM (inactive) | 1.65 µM (inactive) | 0.764 µM (active) | 1.06 µM (active) | 2.78 µM (inactive) | 0.841 µM (active) | 1.07 µM (active) | 8.97 µM (inactive) | 0.718 µM (active) | –
CC(=O)CC[N+](C)(C)C | 83.4 µM (inactive) | 35 µM (inactive) | 17.7 µM (inactive) | 25.2 µM (inactive) | 4.42 µM (inactive) | 13.9 µM (inactive) | > 100 µM (inactive) | 25.7 µM (inactive) | 30.3 µM (inactive) | 21.3 µM (inactive) | 29.2 µM (inactive) | 5.94 µM (inactive) | 44.3 µM (inactive) | 26.7 µM (inactive) | 27.7 µM (inactive) | 12.5 µM (inactive) | 4.06 µM (inactive) | 27.6 µM (inactive) | 34.6 µM (inactive) | 7.85 µM (inactive)
Fc1ccc(F)c(C2SCc3nc4ccccc4n32)c1 (stereo not drawn) | 71.4 µM (inactive) | – | 57.9 µM (inactive) | 61 µM (inactive) | 20.1 µM (inactive) | 89.1 µM (inactive) | > 100 µM (inactive) | > 100 µM (inactive) | – | – | 46.2 µM (inactive) | 40 µM (inactive) | 66.4 µM (inactive) | > 100 µM (inactive) | > 100 µM (inactive) | 52.5 µM (inactive) | > 100 µM (inactive) | 34.3 µM (inactive) | > 100 µM (inactive) | 43.9 µM (inactive)
CCOC(=O)/C=C1\Nc2ccccc2-n2nnnc21 | > 100 µM (inactive) | – | > 100 µM (inactive) | > 100 µM (inactive) | > 100 µM (inactive) | > 100 µM (inactive) | > 100 µM (inactive) | > 100 µM (inactive) | – | – | > 100 µM (inactive) | 64.9 µM (inactive) | > 100 µM (inactive) | > 100 µM (inactive) | > 100 µM (inactive) | > 100 µM (inactive) | 23.7 µM (inactive) | > 100 µM (inactive) | 22.1 µM (inactive) | > 100 µM (inactive)
CSc1ccc(/C=C2\CN(C)C/C(=C\c3ccc(SC)cc3)C2=O)cc1 | > 100 µM (inactive) | – | 81.3 µM (inactive) | 20.4 µM (inactive) | 21.1 µM (inactive) | > 100 µM (inactive) | > 100 µM (inactive) | 32.1 µM (inactive) | – | – | 4.52 µM (inactive) | 2.52 µM (inactive) | 29.2 µM (inactive) | 30.8 µM (inactive) | 23.3 µM (inactive) | 19.8 µM (inactive) | 23 µM (inactive) | 56.6 µM (inactive) | 4.65 µM (inactive) | 7.57 µM (inactive)
COC(=O)C1=CC(O)CCC1c1ccc(OC)cc1 (stereo not drawn) | > 100 µM (inactive) | – | > 100 µM (inactive) | > 100 µM (inactive) | > 100 µM (inactive) | > 100 µM (inactive) | > 100 µM (inactive) | > 100 µM (inactive) | – | – | > 100 µM (inactive) | > 100 µM (inactive) | > 100 µM (inactive) | > 100 µM (inactive) | > 100 µM (inactive) | > 100 µM (inactive) | > 100 µM (inactive) | > 100 µM (inactive) | > 100 µM (inactive) | > 100 µM (inactive)
C1=C(c2ccccc2)C(OC2Oc3ccccc3C=C2c2ccccc2)Oc2ccccc21 (stereo not drawn) | > 100 µM (inactive) | – | > 100 µM (inactive) | > 100 µM (inactive) | > 100 µM (inactive) | > 100 µM (inactive) | > 100 µM (inactive) | > 100 µM (inactive) | – | – | > 100 µM (inactive) | 33.6 µM (inactive) | > 100 µM (inactive) | > 100 µM (inactive) | > 100 µM (inactive) | > 100 µM (inactive) | 31.3 µM (inactive) | > 100 µM (inactive) | 15.5 µM (inactive) | 33.6 µM (inactive)
Cc1ccc(NC(=O)CCc2nnc(S)[nH]2)cc1 | > 100 µM (inactive) | – | > 100 µM (inactive) | > 100 µM (inactive) | > 100 µM (inactive) | > 100 µM (inactive) | > 100 µM (inactive) | 54.8 µM (inactive) | – | – | > 100 µM (inactive) | > 100 µM (inactive) | > 100 µM (inactive) | > 100 µM (inactive) | > 100 µM (inactive) | > 100 µM (inactive) | > 100 µM (inactive) | > 100 µM (inactive) | > 100 µM (inactive) | > 100 µM (inactive)
Nc1cn(C2OC(CC(c3ccccc3)(c3ccccc3)c3ccccc3)C(O)C2O)c(=O)[nH]c1=O (stereo not drawn) | 23 µM (inactive) | – | 33.7 µM (inactive) | 17.6 µM (inactive) | 17.3 µM (inactive) | 31.9 µM (inactive) | 23.4 µM (inactive) | 22 µM (inactive) | – | – | 23.5 µM (inactive) | 18.7 µM (inactive) | 34.7 µM (inactive) | 34.7 µM (inactive) | 22.1 µM (inactive) | 67.9 µM (inactive) | 14.8 µM (inactive) | 26.4 µM (inactive) | 17.7 µM (inactive) | 18.7 µM (inactive)
CC(=O)C1=C(O)C(N)C2Cc3c(c(O)c4c(O)c(C)ccc4c3C)C(=O)C2(O)C1=O (stereo not drawn) | 1.61 µM (inactive) | – | 1.89 µM (inactive) | 1.28 µM (inactive) | 2.23 µM (inactive) | 2.93 µM (inactive) | 1.58 µM (inactive) | 2.85 µM (inactive) | – | – | 1.75 µM (inactive) | 1.27 µM (inactive) | 1.18 µM (inactive) | 3.53 µM (inactive) | 1.37 µM (inactive) | 2.17 µM (inactive) | 2.79 µM (inactive) | 1.93 µM (inactive) | 0.885 µM (active) | 1.64 µM (inactive)
CN(C)CC(C)(C)C(/C=C/c1ccccc1)=N\Nc1ccccc1 | 0.385 µM (active) | – | 0.378 µM (active) | 0.705 µM (active) | 1.16 µM (inactive) | 15.3 µM (inactive) | 2.77 µM (inactive) | 0.0217 µM (active) | – | – | 10.6 µM (inactive) | 1.68 µM (inactive) | 0.172 µM (active) | 5 µM (inactive) | 1.71 µM (inactive) | 11 µM (inactive) | 0.375 µM (active) | 0.162 µM (active) | 0.306 µM (active) | 0.798 µM (active)
Fc1ccc(/N=C2C=C/C(=N\c3ccc(F)cc3)c3ccccc3\2)cc1 | > 100 µM (inactive) | – | 33.9 µM (inactive) | > 100 µM (inactive) | > 100 µM (inactive) | > 100 µM (inactive) | 31.4 µM (inactive) | > 100 µM (inactive) | – | – | 72.1 µM (inactive) | > 100 µM (inactive) | 40.2 µM (inactive) | > 100 µM (inactive) | > 100 µM (inactive) | > 100 µM (inactive) | > 100 µM (inactive) | > 100 µM (inactive) | > 100 µM (inactive) | > 100 µM (inactive)
O=S(=O)(O)c1ccc([Se][Se]c2ccc(S(=O)(=O)O)cc2)cc1 | > 100 µM (inactive) | – | > 100 µM (inactive) | > 100 µM (inactive) | > 100 µM (inactive) | > 100 µM (inactive) | > 100 µM (inactive) | > 100 µM (inactive) | – | – | > 100 µM (inactive) | 72.4 µM (inactive) | > 100 µM (inactive) | > 100 µM (inactive) | > 100 µM (inactive) | > 100 µM (inactive) | > 100 µM (inactive) | > 100 µM (inactive) | > 100 µM (inactive) | 27.9 µM (inactive)
COC(=O)C1C2C=CC(C2)N1[C@@H](C)c1ccccc1 (stereo partly drawn) | > 100 µM (inactive) | – | > 100 µM (inactive) | > 100 µM (inactive) | > 100 µM (inactive) | > 100 µM (inactive) | > 100 µM (inactive) | > 100 µM (inactive) | – | – | > 100 µM (inactive) | > 100 µM (inactive) | > 100 µM (inactive) | > 100 µM (inactive) | > 100 µM (inactive) | > 100 µM (inactive) | > 100 µM (inactive) | > 100 µM (inactive) | > 100 µM (inactive) | > 100 µM (inactive)
